From ChEMBL document CHEMBL5729293, “Inhibitors of KEAP1-Nrf2 protein-protein interaction” (2022)
pKd: −log10 of the molar value.

Test: Fluorescence Based Assay: The details of the KEAP1 KELCH ThermoFluor® Assay Construct are as follows: Kelch domain of human KEAP 1 (321-624 aa) was used in the assay. The protein was expressed in E. coli with 6His tag that was cleaved prior to receipt for use.ThermoFluor® experiments were carried out using instruments owned by Janssen Research and Discovery, L.L.C. through its acquisition of 3-Dimensional Pharmaceuticals, Inc. 1,8-ANS (Invitrogen) was used as a fluorescent dye. Protein (KEAP Kelch) and compound solutions were dispensed into black 384-well polypropylene PCR microplates (Abgene) and overlayed with silicone oil (1 μL, Fluka, type DC 200) to prevent evaporation.Reference wells contained KEAP Kelch without compounds, and the assay conditions were as follows: 1.1 μM (0.037mg/mL) KEAP Kelch, 80 μM 1,8-ANS, 25 mM PIPES, pH 7.0, 100 mM NaCl, 0.002% Tween-20.
With `Cc1ccc([C@@H](c2ccn3c(C(F)(F)F)nnc3c2C)C(C)(C)C(=O)O)nc1CN1CC2(CC2)Oc2nc(OCCN3CCCC3)c(C)cc2S1(=O)=O` the pKd was > 9.00. In the case of `COc1ccc2c(n1)OC1(CCOCC1)CN(Cc1cc([C@@H](c3ccn4c(C(F)F)nnc4c3C)C(C)(C)C(=O)O)ccc1C)S2(=O)=O`, the pKd was > 9.00. For `Cc1ccc(C(CC(=O)O)c2ccn3c(C(F)F)nnc3c2C)cc1CN1C[C@@H]2CCCN2c2ncc(C#N)cc2S1(=O)=O` (stereo not given in full), the pKd was > 9.00. For `Cc1cnc2c(c1)S(=O)(=O)N(Cc1cc([C@@H](c3ccn4c(C(F)(F)F)nnc4c3C)C(C)(C)C(=O)O)ccc1C)CC1(COC1)O2`, the pKd was > 9.00. With `Cc1ncc([C@@H](c2ccn3c(C(F)(F)F)nnc3c2C)C(C)(C)C(=O)O)cc1CN1C[C@@H]2CCCCN2c2ncc(C#N)cc2S1(=O)=O` the pKd was > 9.00. For `Cc1ccc([C@H](c2ccn3c(C(F)(F)F)nnc3c2C)C(C)(C)C(=O)O)cc1CN1CC2(CCOCC2)Oc2nc(OCCCOCCCO)ccc2S1(=O)=O`, the pKd was > 9.00. With `Cc1cnc2c(c1)S(=O)(=O)N(Cc1cc(C(c3ccn4c(C(F)(F)F)nnc4c3C)C(C)(C)C(=O)O)cnc1C)CC1(CCOCC1)O2` (stereo not given) the pKd was > 9.00. In the case of `Cc1cnc2c(c1)S(=O)(=O)N(Cc1cc([C@@H](c3ccn4c(C(F)(F)F)nnc4c3C)C(C)(C)C(=O)O)ncc1C)CC1(CC1)O2`, the pKd was > 9.00. With `Cc1ccc(C(CC(=O)O)c2ccn3c(C(F)F)nnc3c2C)cc1CN1C[C@H]2CCCN2c2ncc(C#N)cc2S1(=O)=O` (stereo not given in full) the pKd was > 9.00. For `Cc1cnc([C@@H](c2ccn3c(C(F)F)nnc3c2C)C(C)(C)C(=O)O)cc1CN1CC2(CC2)Oc2nc(OCCN3CCCCC3)c(C)cc2S1(=O)=O`, the pKd was > 9.00. In the case of `Cc1cnc([C@@H](c2ccn3c(C(F)F)nnc3c2C)C(C)(C)C(=O)O)cc1CN1CC2(CC2)Oc2nc(OCCN3CCCC3)c(C)cc2S1(=O)=O`, the pKd was > 9.00. In the case of `Cc1ccc([C@@H](c2ccn3c(C(F)F)nnc3c2C)C(C)(C)C(=O)O)cc1CN1CC2(CCOCC2)Oc2nc(OCCN3CCOCC3)ccc2S1(=O)=O`, the pKd was > 9.00. In the case of `Cc1ccc([C@@H](c2ccn3c(C(F)(F)F)nnc3c2C)C(C)(C)C(=O)O)cc1CN1CC2(CCOCC2)Oc2nc(OC(C)CN3CCCCC3)c(C)cc2S1(=O)=O` (stereo not given in full), the pKd was > 9.00. In the case of `Cc1ccc([C@H](CC(=O)O)c2ccn3c(C(F)F)nnc3c2C)cc1CN1C[C@@H]2CCCN2c2ncc(C#N)cc2S1(=O)=O`, the pKd was > 9.00. In the case of `Cc1cnc([C@@H](c2ccn3c(C(F)(F)F)nnc3c2C)C(C)(C)C(=O)O)cc1CN1CC2(CCOCC2)Oc2nc(OCCN3CCCC3)c(C)cc2S1(=O)=O`, the pKd was > 9.00. For `Cc1ncc([C@H](c2ccn3c(C(F)(F)F)nnc3c2C)C(C)(C)C(=O)O)cc1CN1CC2(CCOCC2)Oc2ncccc2S1(=O)=O`, the pKd was > 9.00. For `Cc1ccc([C@@H](c2ccn3c(C(F)F)nnc3c2C)C(C)(C)C(=O)O)nc1CN1CC2(COC2)Oc2ncccc2S1(=O)=O`, the pKd was > 9.00. With `Cc1ccc([C@H](c2ccn3c(C4CC4)nnc3c2C)C(C)(C)C(=O)O)cc1CN1CC2(COC2)Oc2ncccc2S1(=O)=O` the pKd was > 9.00. For `CCn1nnc2c(C)c([C@H](c3ccc(C)c(CN4CC5(CCOCC5)Oc5ncccc5S4(=O)=O)n3)C(C)(C)C(=O)O)ccc21`, the pKd was > 9.00. With `Cc1cnc([C@@H](c2ccn3c(C(F)F)nnc3c2C)C(C)(C)C(=O)O)cc1CN1CC2(CCOCC2)Oc2nc(OCCN3CCCCC3)c(C)cc2S1(=O)=O` the pKd was > 9.00. For `Cc1cnc([C@@H](c2ccn3c(C(F)(F)F)nnc3c2C)C(C)(C)C(=O)O)cc1CN1CC2(CC2)Oc2nc(OCCN3CCCCC3)c(C)cc2S1(=O)=O`, the pKd was > 9.00. With `Cc1ccc([C@@H](c2ccn3c(C(F)(F)F)nnc3c2C)C(C)(C)C(=O)O)cc1CN1CC2(CC2)Oc2nc(OCCN3CCC3)c(C)cc2S1(=O)=O` the pKd was > 9.00. With `Cc1ccc([C@@H](CC(=O)O)c2ccn3c(C(F)F)nnc3c2C)cc1CN1C[C@@H]2CCCN2c2ncc(C#N)cc2S1(=O)=O` the pKd was > 9.00. With `Cc1ccc([C@@H](c2ccn3c(C4CC4)nnc3c2C)C(C)(C)C(=O)O)cc1CN1CC2(CC2)Oc2nc(OCCN3CCCC3)c(C)cc2S1(=O)=O` the pKd was > 9.00. For `Cc1cnc2c(c1)S(=O)(=O)N(Cc1cc([C@H](c3ccn4c(C(F)(F)F)nnc4c3C)C(C)(C)C(=O)O)cnc1C)CC1(CCOCC1)O2`, the pKd was > 9.00. With `Cc1ccc([C@@H](c2ccn3c(C(F)F)nnc3c2C)C(C)(C)C(=O)O)nc1CN1CC2(CCOCC2)Oc2nc(OCCN3CCCC3)c(C)cc2S1(=O)=O` the pKd was > 9.00. With `Cc1cnc2c(c1)S(=O)(=O)N(Cc1cc(C(c3ccn4c(C(F)F)nnc4c3C)C(C)(C)C(=O)O)ccc1C)CC1(CCOCC1)O2` (stereo not given) the pKd was > 9.00. In the case of `Cc1cnc2c(c1)S(=O)(=O)N(Cc1cc([C@@H](c3ccn4c(C(F)F)nnc4c3C)C(C)(C)C(=O)O)ccc1C)CC1(COC1)O2`, the pKd was > 9.00. In the case of `CCn1nnc2c(C)c([C@H](c3ccc(C)c(CN4CC5(CCOCC5)Oc5ncc(C)cc5S4(=O)=O)n3)C(C)(C)C(=O)O)ccc21`, the pKd was > 9.00. For `CCn1nnc2c(C)c([C@H](c3cc(CN4CC5(CC5)Oc5ncc(C)cc5S4(=O)=O)c(C)cn3)C(C)(C)C(=O)O)ccc21`, the pKd was > 9.00. In the case of `Cc1ccc([C@@H](c2ccn3c(C(F)(F)F)nnc3c2C)C(C)(C)C(=O)O)cc1CN1CC2(CC2)Oc2nc(OCCN3CCOCC3)c(C)cc2S1(=O)=O`, the pKd was > 9.00. For `Cc1cnc([C@@H](c2ccn3c(C(F)(F)F)nnc3c2C)C(C)(C)C(=O)O)cc1CN1CC2(CC2)Oc2nc(OCCN3CCCC3)c(C)cc2S1(=O)=O`, the pKd was > 9.00. In the case of `Cc1ccc([C@@H](c2ccn3c(C(F)(F)F)nnc3c2C)C(C)(C)C(=O)O)cc1CN1CC2(CCOCC2)Oc2nc(O[C@H](C)CN3CCCCC3)c(C)cc2S1(=O)=O`, the pKd was > 9.00. For `Cc1ccc([C@H](c2ccn3c(C(F)(F)F)nnc3c2C)[C@H](C)C(=O)O)cc1CN1CC2(CC2)Oc2ncccc2S1(=O)=O`, the pKd was > 9.00. With `Cc1cnc2c(c1)S(=O)(=O)N(Cc1cc([C@@H](c3ccn4c(C(F)F)nnc4c3C)C(C)(C)C(=O)O)ccc1C)CC1(CCOCC1)O2` the pKd was > 9.00. With `Cc1cnc2c(c1)S(=O)(=O)N(Cc1cc([C@H](c3ccc4c(nnn4C4CC4)c3C)C(C)(C)C(=O)O)ccc1C)CC1(CNC1)O2` the pKd was > 9.00. With `Cc1ccc([C@@H](c2ccn3c(C(F)(F)F)nnc3c2C)C(C)(C)C(=O)O)cc1CN1CC2(CCOCC2)Oc2nc(O[C@@H](C)CN3CCCCC3)c(C)cc2S1(=O)=O` the pKd was > 9.00. In the case of `Cc1ncc([C@@H](c2ccc3c(nnn3C3CC3)c2C)C(C)(C)C(=O)O)cc1CN1CC2(COC2)Oc2ncccc2S1(=O)=O`, the pKd was > 9.00. For `Cc1cnc2c(c1)S(=O)(=O)N(Cc1cc([C@H](c3ccn4c(C5CC5)nnc4c3C)C(C)(C)C(=O)O)ccc1C)CC1(COC1)O2`, the pKd was > 9.00. For `Cc1ccc([C@H](CC(=O)O)c2ccn3c(C(F)F)nnc3c2C)cc1CN1C[C@H]2CCCN2c2ncc(C#N)cc2S1(=O)=O`, the pKd was > 9.00. In the case of `Cc1ccc([C@@H](c2ccn3c(C(F)(F)F)nnc3c2C)C(C)(C)C(=O)O)cc1CN1CC2(CC2)Oc2nc(OCCN3CC(F)C3)c(C)cc2S1(=O)=O`, the pKd was > 9.00. For `Cc1ccc([C@@H](c2ccn3c(C(F)F)nnc3c2C)C(C)(C)C(=O)O)cc1CN1CC2(COC2)Oc2ncccc2S1(=O)=O`, the pKd was > 9.00. For `Cc1ccc([C@@H](c2ccn3c(C(F)(F)F)nnc3c2C)C(C)(C)C(=O)O)cc1CN1CC2(CCOCC2)Oc2nc(CCC(=O)NC3CCC3)ccc2S1(=O)=O`, the pKd was > 9.00. In the case of `Cc1cnc2c(c1)S(=O)(=O)N(Cc1cc([C@@H](c3ccc4c(nnn4C4CC4)c3C)C(C)(C)C(=O)O)cnc1C)CC1(COC1)O2`, the pKd was > 9.00. For `Cc1cnc2c(c1)S(=O)(=O)N(Cc1cc([C@@H](c3ccn4c(C(F)F)nnc4c3C)C(C)(C)C(=O)O)ccc1C)CC1(CC1)O2`, the pKd was > 9.00. In the case of `Cc1ccc([C@@H](c2ccc3c(nnn3C3CC3)c2C)C(C)(C)C(=O)O)cc1CN1CC2(CC2)Oc2nc(N[C@@H](C)CN3CCCCC3)c(C)cc2S1(=O)=O`, the pKd was > 9.00. For `Cc1ccc([C@H](c2ccc3c(nnn3C3CC3)c2C)C(C)(C)C(=O)O)cc1CN1CC2(CCNCC2)Oc2ncccc2S1(=O)=O`, the pKd was > 9.00. For `Cc1cnc2c(c1)S(=O)(=O)N(Cc1cc([C@@H](c3ccc4c(nnn4C4CC4)c3C)C(C)(C)C(=O)O)ccc1C)CC1(CCNCC1)O2`, the pKd was > 9.00. For `Cc1cnc2c(c1)S(=O)(=O)N(Cc1cc([C@@H](c3ccn4c(C(F)(F)F)nnc4c3C)C(C)(C)C(=O)O)ncc1C)CC1(CCOCC1)O2`, the pKd was > 9.00. With `Cc1ccc([C@H](c2ccn3c(C(F)(F)F)nnc3c2C)C(C)(C)C(=O)O)cc1CN1CC2(CCOCC2)Oc2nc(N[C@H](C)CN3CCCCC3)c(C)cc2S1(=O)=O` the pKd was > 9.00. In the case of `Cc1cnc2c(c1)S(=O)(=O)N(Cc1cc([C@H](c3ccn4c(C(F)(F)F)nnc4c3C)C(C)(C)C(=O)O)cnc1C)CC1(CC1)O2`, the pKd was > 9.00. With `Cc1ccc([C@@H](c2ccn3c(C(F)(F)F)nnc3c2C)C(C)(C)C(=O)O)cc1CN1CC2(CC2)Oc2nc(OCCN3CCC(F)CC3)c(C)cc2S1(=O)=O` the pKd was > 9.00. With `Cc1cnc([C@@H](c2ccn3c(C(F)F)nnc3c2C)C(C)(C)C(=O)O)cc1CN1CC2(CCOCC2)Oc2nc(OCCN3CCCC3)c(C)cc2S1(=O)=O` the pKd was > 9.00. With `Cc1cc2c(nc1OCCN1CCCC1)OC1(CC1)CN(Cc1cc([C@@H](c3ccc4c(nnn4C4CC4)c3C)C(C)(C)C(=O)O)cnc1C)S2(=O)=O` the pKd was > 9.00. In the case of `Cc1cnc2c(c1)S(=O)(=O)N(Cc1nc([C@@H](c3ccn4c(C(F)F)nnc4c3C)C(C)(C)C(=O)O)ccc1C)CC1(COC1)O2`, the pKd was > 9.00. In the case of `Cc1ncc([C@H](c2ccn3c(C(F)(F)F)nnc3c2C)C(C)(C)C(=O)O)cc1CN1C[C@@H]2CCCCN2c2ncc(C#N)cc2S1(=O)=O`, the pKd was > 9.00. With `Cc1ccc([C@@H](CC(=O)O)c2ccn3c(C(F)F)nnc3c2C)cc1CN1C[C@H]2CCCN2c2ncc(C#N)cc2S1(=O)=O` the pKd was > 9.00. With `Cc1ccc([C@@H](c2ccn3c(C(F)(F)F)nnc3c2C)C(C)(C)C(=O)O)cc1CN1CC2(COC2)Oc2ncccc2S1(=O)=O` the pKd was > 9.00. In the case of `Cc1ccc([C@@H](c2ccn3c(C4CC4)nnc3c2C)C(C)(C)C(=O)O)cc1CN1CC2(COC2)Oc2ncccc2S1(=O)=O`, the pKd was > 9.00. With `Cc1ccc([C@@H](CC(=O)O)c2ccc3c(nnn3CC3CC3)c2C(F)F)cc1CN1C[C@H]2CCCCN2c2ncccc2S1(=O)=O` (single isomer, unassigned) the pKd was > 9.00.
